Article PMC4155245, “Clostridium difficile has a single sortase, SrtB, that can be inhibited by small-molecule inhibitors” (BMC Microbiology, 2014)
Where two headings read alike, the source gives them in different places.

Target: T1, SrtB (sortase B, CD630_27180) (Clostridioides difficile, UniProt Q183F3)
T1 construct: SrtBΔN26 (N-terminal transmembrane residues 2–25 replaced with a six-histidine tag)
Experiment: FRET peptide cleavage assay (d-PVPPKTGDS-e) with purified recombinant SrtBΔN26
Assay type: biochemical

T1 sequence (Q183F3 entry or part of it): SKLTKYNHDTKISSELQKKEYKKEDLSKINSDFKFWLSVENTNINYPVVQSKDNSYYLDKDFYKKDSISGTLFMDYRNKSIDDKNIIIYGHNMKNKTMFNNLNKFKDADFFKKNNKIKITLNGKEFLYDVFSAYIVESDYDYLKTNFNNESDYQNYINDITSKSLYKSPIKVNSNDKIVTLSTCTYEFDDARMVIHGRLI

Molecule	IC50	IC50 (read-out: IC50)
C[N+](C)(C)CCSS(C)(=O)=O [MTSET, 2-(trimethylamonium)ethylmethanethiosulfonate]	287 ± 16.6 µM	
LSHTM-0040 [LSHTM40]		63.1 ± 8.8 µM
LSHTM-0050 [LSHTM50]		60.1 ± 4.7 µM
LSHTM-0052 [LSHTM52]		44.1 ± 6.9 µM
